From US10202378B2, “Therapeutic compounds and uses thereof” (GENENTECH, INC., priority 2015, dated 2019)

Assays:
TAF1-BD2 = TAF1-BD2 (Homo sapiens, UniProt P21675); experiment: TAF1-BD2 TR-FRET Binding Assay; conditions: read-out: TAF1-BD2 HTRF IC50
TAF1-BD1 = TAF1-BD1 (Homo sapiens, UniProt P21675); experiment: TAF1-BD1 TR-FRET Binding Assay; conditions: read-out: TAF1-BD1 HTRF IC50

SMILES	IC50 (TAF1-BD2) [nM]	IC50 (TAF1-BD1) [nM]
C=CCCn1cc(C#CC(C)(C)C(N)=O)c2c(C(=O)OCC)c(C)[nH]c2c1=O [Example 48, ethyl 4-(4-amino-3,3-dimethyl-4-oxo-but-1-ynyl)-6-but-3-enyl-2-methyl-7-oxo-1H-pyrrolo[2,3-c]pyridine-3-carboxylate]	312	1280
CCOC(=O)c1c(C)[nH]c2c(=O)n(C)cc(C#CC(C)(O)C3CC3)c12 (single isomer, unassigned) [Example 92a, ethyl 4-(3-cyclopropyl-3-hydroxy-but-1-ynyl)-2,6-dimethyl-7-oxo-1H-pyrrolo[2,3-c]pyridine-3-carboxylate]	33.2	154
C=CCCn1cc(C#CC(C)(C)CO)c2c(C(=O)OCC)c(C)[nH]c2c1=O [Example 47, ethyl 6-but-3-enyl-4-(4-hydroxy-3,3-dimethyl-but-1-ynyl)-2-methyl-7-oxo-1H-pyrrolo[2,3-c]pyridine-3-carboxylate]	368	4900
CCOC(=O)c1c(C)[nH]c2c(=O)n(C)cc(C#CCCO)c12 [Example 82, ethyl 4-(4-hydroxybut-1-ynyl)-2,6-dimethyl-7-oxo-1H-pyrrolo[2,3-c]pyridine-3-carboxylate]	337	1750
Cc1nnc(-c2c(C)[nH]c3c(=O)n(C)cc(C#CC(C)(O)C4CC4)c23)o1 (stereo not drawn) [Example 192, 4-(3-cyclopropyl-3-hydroxy-but-1-ynyl)-2,6-dimethyl-3-(5-methyl-1,3,4-oxadiazol-2-yl)-1H-pyrrolo[2,3-c]pyridin-7-one]	61.6	335
CCOC(=O)c1c(C)[nH]c2c(=O)n(C)cc(C#Cc3cccc(O)c3)c12 [Example 63, ethyl 4-[2-(3-hydroxyphenyl)ethynyl]-2,6-dimethyl-7-oxo-1H-pyrrolo[2,3-c]pyridine-3-carboxylate]	38.5	195
CCOC(=O)c1c(C)[nH]c2c(=O)n(C)cc(C#Cc3ccc(OC)cc3)c12 [Example 58, ethyl 4-[2-(4-methoxyphenyl)ethynyl]-2,6-dimethyl-7-oxo-1H-pyrrolo[2,3-c]pyridine-3-carboxylate]	38.4	315
CCOC(=O)c1c(C)[nH]c2c(=O)n(C)cc(C#CC3(O)CCN(CC)CC3)c12 [Example 8, ethyl 4-[2-(1-ethyl-4-hydroxy-4-piperidyl)ethynyl]-2,6-dimethyl-7-oxo-1H-pyrrolo[2,3-c]pyridine-3-carboxylate]	425	7850
CCOC(=O)c1c(C)[nH]c2c(=O)n(C)cc(C#Cc3ccsc3)c12 [Example 62, ethyl 2,6-dimethyl-7-oxo-4-[2-(3-thienyl)ethynyl]-1H-pyrrolo[2,3-c]pyridine-3-carboxylate]	57.9	402
CCOC(=O)c1c(C)[nH]c2c(=O)n(C)cc(C#CC(C)(O)C3CC3)c12 (single isomer, unassigned) [Example 92b, ethyl 4-(3-cyclopropyl-3-hydroxy-but-1-ynyl)-2,6-dimethyl-7-oxo-1H-pyrrolo[2,3-c]pyridine-3-carboxylate]	230	1090
CCC(C)(C)OC(=O)c1c(C)[nH]c2c(=O)n(C)cc(C#C[C@@](C)(O)c3cc(C)on3)c12 [Example 139, 1,1-dimethylpropyl 4-[(3R)-3-hydroxy-3-(5-methylisoxazol-3-yl)but-1-ynyl]-2,6-dimethyl-7-oxo-1H-pyrrolo[2,3-c]pyridine-3-carboxylate]	47.7	232
CCOC(=O)c1c(C)[nH]c2c(=O)n(C)cc(C#CC3(O)CCc4cccnc43)c12 (single isomer, unassigned) [Example 99a, ethyl 4-[2-(7-hydroxy-5,6-dihydrocyclopenta[b]pyridin-7-yl)ethynyl]-2,6-dimethyl-7-oxo-1H-pyrrolo[2,3-c]pyridine-3-carboxylate]	1180	2930
Cc1[nH]c2c(=O)n(C)cc(C#CC(C)(C)O)c2c1C(=O)OCc1ccccc1 [Example 103, Benzyl 4-(3-hydroxy-3-methyl-but-1-ynyl)-2,6-dimethyl-7-oxo-1H-pyrrolo[2,3-c]pyridine-3-carboxylate]	34.5	151
C=CCCn1cc(C#CC(C)(O)C2CC2)c2c(C(=O)OCC(C)C)c(C)[nH]c2c1=O (stereo not drawn) [Example 122, isobutyl 6-but-3-enyl-4-(3-cyclopropyl-3-hydroxy-but-1-ynyl)-2-methyl-7-oxo-1H-pyrrolo[2,3-c]pyridine-3-carboxylate]	116	1710
Cc1[nH]c2c(=O)n(C)cc(C#CC(C)(C)O)c2c1C(=O)OCC(C)(C)C [Example 150, 2,2-dimethylpropyl 4-(3-hydroxy-3-methyl-but-1-ynyl)-2,6-dimethyl-7-oxo-1H-pyrrolo[2,3-c]pyridine-3-carboxylate]	30.4	93.6
Cc1cc([C@](C)(O)C#Cc2cn(C)c(=O)c3[nH]c(C)c(-c4nnc(C(C)C)o4)c23)no1 [Example 194, 4-[(3R)-3-hydroxy-3-(5-methylisoxazol-3-yl)but-1-ynyl]-3-(5-isopropyl-1,3,4-oxadiazol-2-yl)-2,6-dimethyl-1H-pyrrolo[2,3-c]pyridin-7-one]	69.1	244
Cc1[nH]c2c(=O)n(C)cc(C#CC(C)(O)C3CC3)c2c1C1=NC(C(C)C)CO1 (stereo not drawn) [Example 203, 4-(3-cyclopropyl-3-hydroxy-but-1-ynyl)-3-(4-isopropyl-4,5-dihydrooxazol-2-yl)-2,6-dimethyl-1H-pyrrolo[2,3-c]pyridin-7-one]	307	1120
Cc1[nH]c2c(=O)n(C)cc(C#CC(C)(O)c3ccccc3)c2c1C(=O)OCC(C)C (stereo not drawn) [Example 160, isobutyl 4-(3-hydroxy-3-phenyl-but-1-ynyl)-2,6-dimethyl-7-oxo-1H-pyrrolo[2,3-c]pyridine-3-carboxylate]	32.4	130
Cc1[nH]c2c(=O)n(C)cc(C#CC(C)(O)C3CC3)c2c1C(=O)OC(C)(C)CC#N (stereo not drawn) [Example 134, (2-cyano-1,1-dimethyl-ethyl)-4-(3-cyclopropyl-3-hydroxy-but-1-ynyl)-2,6-dimethyl-7-oxo-1H-pyrrolo[2,3-c]pyridine-3-carboxylate]	26.8	222
CCc1nnc(-c2c(C)[nH]c3c(=O)n(C)cc(C#CC(C)(O)C4CC4)c23)o1 (stereo not drawn) [Example 181, 4-(3-cyclopropyl-3-hydroxy-but-1-ynyl)-3-(5-ethyl-1,3,4-oxadiazol-2-yl)-2,6-dimethyl-1H-pyrrolo[2,3-c]pyridin-7-one]	44.8	199
Cc1[nH]c2c(=O)n(C)cc(C#CC(C)(C)O)c2c1C(=O)OCC(C)C [Example 132, isobutyl 4-(3-hydroxy-3-methyl-but-1-ynyl)-2,6-dimethyl-7-oxo-1H-pyrrolo[2,3-c]pyridine-3-carboxylate]	29.9	173
CCOC(=O)c1c(C)[nH]c2c(=O)n(C)cc(C#CC(C)(C)C(=O)NC)c12 [Example 32, ethyl 4-[3,3-dimethyl-4-(methylamino)-4-oxo-but-1-ynyl]-2,6-dimethyl-7-oxo-1H-pyrrolo[2,3-c]pyridine-3-carboxylate]	1320	802
Cc1[nH]c2c(=O)n(C)cc(C#CC(O)(c3ccccc3)C(F)(F)F)c2c1-c1nnc(C(C)(C)C)o1 (stereo not drawn) [Example 188, 3-(5-tert-butyl-1,3,4-oxadiazol-2-yl)-2,6-dimethyl-4-(4,4,4-trifluoro-3-hydroxy-3-phenyl-but-1-ynyl)-1H-pyrrolo[2,3-c]pyridin-7-one]	86.2	385
Cc1[nH]c2c(=O)n(C)cc(C#CC(C)(O)C3CC3)c2c1C(=O)OCC(C)C (stereo not drawn) [Example 126, isobutyl 4-(3-cyclopropyl-3-hydroxy-but-1-ynyl)-2,6-dimethyl-7-oxo-1H-pyrrolo[2,3-c]pyridine-3-carboxylate]	40.1	123
Cc1[nH]c2c(=O)n(C)cc(C#CC(C)(C)O)c2c1C(=O)OC(C)(C)CC#N [Example 163, (2-cyano-1,1-dimethyl-ethyl) 4-(3-hydroxy-3-methyl-but-1-ynyl)-2,6-dimethyl-7-oxo-1H-pyrrolo[2,3-c]pyridine-3-carboxylate]	27.3	283
CCOC(=O)c1c(C)[nH]c2c(=O)n(C)cc(C#CC(O)(c3cccnc3)C(F)(F)F)c12 (stereo not drawn) [Example 1, ethyl 2,6-dimethyl-7-oxo-4-(4,4,4-trifluoro-3-hydroxy-3-(3-pyridyl)but-1-ynyl)-1H-pyrrolo[2,3-c]pyridine-3-carboxylate]	80.4	312
CCOC(=O)c1c(C)[nH]c2c(=O)n(C)cc(C#CC(O)(c3cccc(-c4cccnc4)c3)C(F)(F)F)c12 (stereo not drawn) [Example 100, ethyl 2,6-dimethyl-7-oxo-4-[4,4,4-trifluoro-3-hydroxy-3-[3-(3-pyridyl)phenyl]but-1-ynyl]-1H-pyrrolo[2,3-c]pyridine-3-carboxylate]	27.3	189
C=CCCn1cc(C#C[C@](C)(O)c2cc(C)on2)c2c(C(=O)OCC)c(C)[nH]c2c1=O [Example 71, ethyl 6-but-3-enyl-4-[(3S)-3-hydroxy-3-(5-methylisoxazol-3-yl)but-1-ynyl]-2-methyl-7-oxo-1H-pyrrolo[2,3-c]pyridine-3-carboxylate]	190	2510
CCOC(=O)c1c(C)[nH]c2c(=O)n(C)cc(C#CC(C)(O)c3cccc(C#N)c3)c12 (stereo not drawn) [Example 19, ethyl 4-[3-(3-cyanophenyl)-3-hydroxy-but-1-ynyl]-2,6-dimethyl-7-oxo-1H-pyrrolo[2,3-c]pyridine-3-carboxylate]	30.3	146
CCOC(=O)c1c(C)[nH]c2c(=O)n(C)cc(C#CC(O)(c3cccc(N)c3)C(F)(F)F)c12 (stereo not drawn) [Example 2, ethyl 4-[3-(3-aminophenyl)-4,4,4-trifluoro-3-hydroxy-but-1-ynyl]-2,6-dimethyl-7-oxo-1H-pyrrolo[2,3-c]pyridine-3-carboxylate]	45.3	249
